Target: MAPK14 (human) (UniProt Q16539)
Assay: Inhibition of MAPK14 Kinase Activity

Chain of MAPK14 (human) (Q16539 whole entry, looked up): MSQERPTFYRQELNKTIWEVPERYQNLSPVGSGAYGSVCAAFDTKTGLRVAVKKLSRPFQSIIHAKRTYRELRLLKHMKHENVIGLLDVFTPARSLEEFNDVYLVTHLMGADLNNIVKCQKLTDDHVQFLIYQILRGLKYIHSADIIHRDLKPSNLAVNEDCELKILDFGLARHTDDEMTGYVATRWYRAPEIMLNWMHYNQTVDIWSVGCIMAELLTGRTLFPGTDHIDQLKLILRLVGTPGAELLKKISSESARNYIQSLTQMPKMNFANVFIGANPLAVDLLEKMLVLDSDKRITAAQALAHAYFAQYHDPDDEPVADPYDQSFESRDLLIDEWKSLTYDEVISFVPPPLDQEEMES

Cc1cc(F)ccc1-c1nc(S(C)(=O)=O)nc2c1ccc(=O)n2-c1c(C)cccc1C
IC50: < 10 µM

Cc1cc(F)ccc1-c1nc(NCCc2noc(=O)[nH]2)nc2c1ccc(=O)n2-c1c(F)cccc1F
IC50: < 10 µM

Cc1cc(F)ccc1-c1nc(NC(C)(C)CO)nc2c1ccc(=O)n2-c1c(F)cccc1F
IC50: < 10 µM

Cc1cc(F)ccc1-c1nc(NCCO)nc2c1ccc(=O)n2C(C)C
IC50: < 10 µM

CCOC(=O)CNc1nc(-c2ccccc2Cl)c2ccc(=O)n(-c3ccccc3Cl)c2n1
IC50: < 10 µM

Cc1cc(F)ccc1-c1nc(NCC(=O)N2CCOCC2)nc2c1ccc(=O)n2-c1c(F)cccc1F
IC50: < 10 µM

CSc1nc(-c2ccccc2F)c2ccc(=O)n(-c3c(F)cccc3F)c2n1
IC50: < 10 µM

Cc1cc(F)ccc1-c1nc(S(C)(=O)=O)nc2c1ccc(=O)n2C1CCCCC1
IC50: < 10 µM

CCCCOc1nc(-c2ccc(F)cc2C)c2ccc(=O)n(-c3c(F)cccc3F)c2n1
IC50: < 10 µM

Cc1cc(F)ccc1-c1nc(NC2CCN(C)CC2)nc2c1ccc(=O)n2-c1c(F)cccc1F
IC50: < 10 µM

Cc1cc(F)ccc1-c1nc(NC(C)(CO)CO)nc2c1ccc(=O)n2-c1ccccc1C
IC50: < 10 µM

CSc1nc(-c2ccccc2)c2ccc(=O)n(-c3ccccc3)c2n1
IC50: < 10 µM

Cc1cc(F)ccc1-c1nc(NCCNC(=O)NC2CCCCC2)nc2c1ccc(=O)n2-c1c(F)cccc1F
IC50: < 10 µM

Cc1cc(F)ccc1-c1nc(OCCN)nc2c1ccc(=O)n2-c1c(F)cccc1F
IC50: < 10 µM

Cc1cc(F)ccc1-c1nc(OCCN(C)S(C)(=O)=O)nc2c1ccc(=O)n2-c1c(F)cccc1F
IC50: < 10 µM

Cc1cc(F)ccc1-c1nc(NC2CCOCC2)nc2c1ccc(=O)n2-c1ccccc1F
IC50: < 10 µM

Cc1cc(F)ccc1-c1nc(NCc2nnn[nH]2)nc2c1ccc(=O)n2-c1c(F)cccc1F
IC50: < 10 µM

Cc1cc(F)ccc1-c1nc(NCCNC(=O)c2ccccc2)nc2c1ccc(=O)n2-c1c(F)cccc1F
IC50: < 10 µM

Cc1cc(F)ccc1-c1nc(Nc2nnn[nH]2)nc2c1ccc(=O)n2-c1c(F)cccc1F
IC50: < 10 µM

Cc1cc(F)ccc1-c1nc(NCCC(=N)NO)nc2c1ccc(=O)n2-c1c(F)cccc1F
IC50: < 10 µM

Cc1cc(F)ccc1-c1nc(NCC(=O)N2CCNC(=O)C2)nc2c1ccc(=O)n2-c1c(F)cccc1F
IC50: < 10 µM

Cc1cc(F)ccc1-c1nc(NC[C@H](O)c2ccccc2)nc2c1ccc(=O)n2-c1c(F)cccc1F
IC50: < 10 µM

Cc1cc(F)ccc1-c1nc(NC2CCC(O)CC2)nc2c1ccc(=O)n2-c1ccccc1F (centres undefined)
IC50: < 10 µM

O=c1ccc2c(-c3ccccc3Cl)nc(NC(CO)CO)nc2n1-c1ccccc1Cl
IC50: < 10 µM

Cc1cc(F)ccc1-c1nc(NC2CCOCC2)nc2c1ccc(=O)n2-c1c(F)cccc1F
IC50: < 10 µM

Cc1cc(F)ccc1-c1nc(NC[C@H](C)O)nc2c1ccc(=O)n2-c1ccccc1C
IC50: < 10 µM

Cc1cc(F)ccc1-c1nc(N[C@@H]2CCC[C@@H]2C(N)=O)nc2c1ccc(=O)n2-c1c(F)cccc1F
IC50: < 10 µM

Cc1cc(F)ccc1-c1nc(NC(CO)CO)nc2c1ccc(=O)n2-c1ccccc1F
IC50: < 10 µM

CSc1nc(Cl)c(C=O)c(NC2CCCCC2)n1
IC50: < 10 µM

Cc1cc(F)ccc1-c1nc(NCC(=O)NC2CC2)nc2c1ccc(=O)n2-c1c(F)cccc1F
IC50: < 10 µM

CCOC(=O)CNc1nc(-c2ccccc2Cl)c2ccc(=O)n(C(CC)CC)c2n1
IC50: < 10 µM

Cc1cc(F)ccc1-c1nc(O)nc2c1ccc(=O)n2-c1ccccc1F
IC50: < 10 µM

CCNc1nc(-c2ccc(F)cc2C)c2ccc(=O)n(-c3c(F)cccc3F)c2n1
IC50: < 10 µM

Cc1cc(F)ccc1-c1nc(NC2CCOC2)nc2c1ccc(=O)n2-c1c(F)cccc1F (centres undefined)
IC50: < 10 µM

CS(=O)(=O)Nc1nc(-c2ccccc2)c2ccc(=O)n(-c3ccccc3)c2n1
IC50: < 10 µM

Cc1cc(F)ccc1-c1nc(NCC(C)(C)O)nc2c1ccc(=O)n2-c1ccccc1C
IC50: < 10 µM

CN1CCC(Nc2nc(-c3ccccc3Cl)c3ccc(=O)n(-c4ccccc4Cl)c3n2)CC1
IC50: < 10 µM

CCN(CC)CCNc1nc(-c2ccc(F)cc2C)c2ccc(=O)n(-c3c(F)cccc3F)c2n1
IC50: < 10 µM

CS(=O)(=O)Nc1nc(-c2ccccc2F)c2ccc(=O)n(-c3c(F)cccc3F)c2n1
IC50: < 10 µM

Cc1cc(F)ccc1-c1nc(NCC(F)(F)F)nc2c1ccc(=O)n2-c1ccccc1F
IC50: < 10 µM

Cc1cc(F)ccc1-c1nc(NC[C@H](C)O)nc2c1ccc(=O)n2-c1ccccc1F
IC50: < 10 µM

Cc1cc(F)ccc1-c1nc(NCCNC(=O)CNC(=O)OC(C)(C)C)nc2c1ccc(=O)n2-c1c(F)cccc1F
IC50: < 10 µM

Cc1cc(F)ccc1-c1nc(NC(CO)CO)nc2c1ccc(=O)n2-c1c(F)cccc1F
IC50: < 10 µM

CN(C)CCNc1nc(-c2ccccc2Cl)c2ccc(=O)n(-c3ccccc3Cl)c2n1
IC50: < 10 µM

Cc1cc(F)ccc1-c1nc(Nc2nc[nH]n2)nc2c1ccc(=O)n2-c1c(F)cccc1F
IC50: < 10 µM

CCN(CC)CCNc1nc(-c2ccccc2F)c2ccc(=O)n(-c3ccccc3Cl)c2n1
IC50: < 10 µM

CSc1nc(-c2ccccc2F)c2ccc(=O)n(-c3ccccc3F)c2n1
IC50: < 10 µM

CC(C)n1c(=O)ccc2c(-c3ccccc3F)nc(NC(CO)CO)nc21
IC50: < 10 µM

CSc1nc(-c2ccc(F)cc2C)c2ccc(=O)n(-c3ccccc3C)c2n1
IC50: < 10 µM

Reference: the Kinase Knowledgebase extract (Sharma et al. 2016)
